According to US8673578B2, “Methods of identifying antagonists of the hTAS2R46 bitter taste receptor” (Deutsches Institut für Ernahrungsforschung Potsdam-Rehbrücke, priority 2009, dated 2014):

Experiments:
Assay type in all cases: cell-based
hTAS2R5 = target: T1, hTAS2R5 (Homo sapiens, UniProt Q9NYW4); assay: calcium imaging (FLIPR), effect on agonist-dependent hTAS2R activation; settings: 100 μM test substance; agonist denatonium saccharide 3000 μM; agonist alone = 100%
T1 construct: expressed in transfected cells; host or cells: HEK293T cells stably expressing chimeric Gα16gust44, transient transfection
T1 sequence (Q9NYW4 1-299): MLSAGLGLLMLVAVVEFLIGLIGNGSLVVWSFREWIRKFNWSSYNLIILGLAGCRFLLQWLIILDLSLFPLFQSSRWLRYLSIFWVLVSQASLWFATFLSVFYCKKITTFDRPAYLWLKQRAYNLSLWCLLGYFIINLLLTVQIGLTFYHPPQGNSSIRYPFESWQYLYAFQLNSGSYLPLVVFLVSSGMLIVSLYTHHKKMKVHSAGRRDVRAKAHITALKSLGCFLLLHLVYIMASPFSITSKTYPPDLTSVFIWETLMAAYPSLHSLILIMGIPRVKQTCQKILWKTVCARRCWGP
Source text: (§1) Human TAS2R cDNAs were cloned into pcDNA5/FRT (Invitrogen, San Diego, Calif.). For adequate plasma membrane targeting, receptor cDNA was fused to the aminoterminal sequence of the rat somatostatin type 3 receptor at the aminoterminus of the recombinant protein (Bufe, B., T. Hofmann, et al. (2002) Nat Genet. 32(3): 397-401). For immunological detection, the Herpes simplex Glycoprotein D epitope was supplemented at the carboxyterminus of the recombinant protein (Bufe et al., supra). Receptor constructs were transiently transfected into HEK293T cells stably expressing the chimeric G protein subunit Gα16gust44 (Ueda, T., S. Ugawa, et al. (2003) J Neurosci 23(19): 7376-80) using Lipofectamine 2000 (Invitrogen, San Diego, Calif.) in 96-well plates.
(§2) Calcium Imaging experiments were performed 24 h after transfection using a Fluorometric Imaging Plate Reader (FLIPR, Molecular Devices, Munich, Germany) as previously described (Bufe et al., supra). Taste active compounds were ordered from Sigma (Sigma-Aldrich, Taufkirchen, Germany). Absinthin, 3β hydroxy dihydro costunolide and 3β hydroxy pelenolide were kindly provided by Giovanni Appendino (Novara, Italy). Test substances were directly dissolved in C1 buffer (130 mM NaCl, 10 mM Na-Hepes, 10 mM Glucose, 5 mM KCl, 2 mM CaCl2, pH 7.4) or in DMSO, respectively. DMSO stocks were further diluted in C1 buffer not exceeding a final DMSO concentration of 1% on the cells. For the investigation of antagonistic effects, test substances were premixed. Agonists were applied at concentrations corresponding to EC90, except where indicated otherwise (Table 2). Data were collected from 3 independent experiments performed in quadruplicates and processed with SigmaPlot (SPSS, Chicago, Ill.). Fluorescence signals after application of test substances were corrected for and normalized to background fluorescence (ΔF/F═(F−F0)/F0), and baseline noise was subtracted. Calculation of dose-response curves was done by nonlinear regression using the function f(y)=((a−d)/(1+(x/EC50)^nH)+d).
To test 3β hydroxy dihydro costunolide and 3β hydroxy pelenolide for antagonistic or enhancing effects on hTAS2R activation, transfected cells were stimulated with cognate agonist bitter substances at EC90 concentrations (Table 2) without 3β hydroxy dihydro costunolide and 3β hydroxy pelenolide. The cellular responses after application of the agonist alone were set to 100%, responses obtained after coapplication of agonists and 100 μM 3β hydroxy dihydro costunolide or 100 μM 3β hydroxy pelenolide are shown relative to this value (FIG. 4).

hTAS2R44 = target: T2, hTAS2R44 (Homo sapiens, UniProt P59538, L162M); assay: calcium imaging (FLIPR), activation of hTAS2R-transfected HEK293T-Gα16gust44 cells
T2 construct: expressed in transfected cells; host or cells: HEK293T cells stably expressing chimeric Gα16gust44, transient transfection
T2 sequence (P59538 1-309 L162M): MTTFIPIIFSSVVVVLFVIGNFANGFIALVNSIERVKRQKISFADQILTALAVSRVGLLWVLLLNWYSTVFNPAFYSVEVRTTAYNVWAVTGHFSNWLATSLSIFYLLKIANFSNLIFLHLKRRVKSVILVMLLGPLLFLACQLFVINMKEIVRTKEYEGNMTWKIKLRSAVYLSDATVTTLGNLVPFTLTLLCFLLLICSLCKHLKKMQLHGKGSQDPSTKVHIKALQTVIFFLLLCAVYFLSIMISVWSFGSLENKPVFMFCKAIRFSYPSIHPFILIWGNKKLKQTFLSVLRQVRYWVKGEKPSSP
Source text: as §1, §2
(§3) In a first series of experiments we tested the two sesquiterpene lactones 3β hydroxy dihydro costunolide (formula (I) in FIG. 1) and 3β hydroxy pelenolide (formula (II) in FIG. 1) for their ability to activate hTAS2 receptor-expressing HEK293T cells.
(§4) Signal amplitudes were comparatively small (FIG. 2C).

hTAS2R1 = target: T3, hTAS2R1 (Homo sapiens, UniProt Q9NYW7); assay: as above; settings: 100 μM test substance, bath application
T3 construct: expressed in transfected cells; host or cells: HEK293T cells stably expressing chimeric Gα16gust44, transient transfection
T3 sequence (Q9NYW7 1-299): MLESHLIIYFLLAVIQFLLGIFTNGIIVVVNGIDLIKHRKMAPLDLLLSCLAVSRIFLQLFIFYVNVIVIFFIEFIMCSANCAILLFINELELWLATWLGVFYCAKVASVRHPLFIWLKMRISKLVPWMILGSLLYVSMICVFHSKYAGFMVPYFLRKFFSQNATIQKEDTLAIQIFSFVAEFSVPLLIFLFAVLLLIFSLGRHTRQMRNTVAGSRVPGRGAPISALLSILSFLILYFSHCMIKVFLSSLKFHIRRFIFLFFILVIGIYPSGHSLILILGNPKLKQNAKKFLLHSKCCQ
Source text: as §1, §2, §3, §4

hTAS2R8 = target: T4, hTAS2R8 (Homo sapiens, UniProt Q9NYW2); assay: as above; settings: 100 μM test substance, bath application
T4 construct: expressed in transfected cells; host or cells: HEK293T cells stably expressing chimeric Gα16gust44, transient transfection
T4 sequence (Q9NYW2 1-309): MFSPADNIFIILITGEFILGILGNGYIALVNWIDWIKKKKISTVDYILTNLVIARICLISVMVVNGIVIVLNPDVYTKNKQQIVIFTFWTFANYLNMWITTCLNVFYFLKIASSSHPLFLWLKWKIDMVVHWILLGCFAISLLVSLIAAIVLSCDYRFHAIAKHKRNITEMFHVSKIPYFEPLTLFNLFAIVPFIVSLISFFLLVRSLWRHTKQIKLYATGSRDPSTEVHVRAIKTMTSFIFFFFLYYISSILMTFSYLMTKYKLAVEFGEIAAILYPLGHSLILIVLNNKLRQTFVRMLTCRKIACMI
Source text: as §1, §2, §3, §4

hTAS2R7 = target: T5, hTAS2R7 (Homo sapiens, UniProt Q9NYW3); assay: as above; settings: 100 μM test substance, bath application
T5 construct: expressed in transfected cells; host or cells: HEK293T cells stably expressing chimeric Gα16gust44, transient transfection
T5 sequence (Q9NYW3 1-318): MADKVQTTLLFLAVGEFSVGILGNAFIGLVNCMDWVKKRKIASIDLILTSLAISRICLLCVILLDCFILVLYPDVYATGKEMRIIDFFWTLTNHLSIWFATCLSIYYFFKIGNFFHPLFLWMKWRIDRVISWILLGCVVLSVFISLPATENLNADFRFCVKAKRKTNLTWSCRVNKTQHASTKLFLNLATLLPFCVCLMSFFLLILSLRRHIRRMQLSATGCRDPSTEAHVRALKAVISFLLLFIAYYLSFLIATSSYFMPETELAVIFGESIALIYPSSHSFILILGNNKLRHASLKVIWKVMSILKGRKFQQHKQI
Source text: as §1, §2, §3, §4

Compound: C/C1=C\C[C@H](O)/C(C)=C/[C@H]2OC(=O)[C@@H](C)C2CC1 (stereo partly drawn) [3β hydroxy dihydro costunolide]
- agonist-dependent response of hTAS2R5-expressing cells on coapplication (hTAS2R5): increased responses
- calcium response of hTAS2R44-transfected cells (hTAS2R44; 100 μM test substance, bath application): responded
- EC50 (hTAS2R44; concentration-response, intracellular calcium): 31.5 ± 7.4 µM
- calcium response of hTAS2R1-transfected cells (hTAS2R1): responded
- calcium response of hTAS2R8-transfected cells (hTAS2R8): responded
- calcium response of hTAS2R7-transfected cells (hTAS2R7): responded
